Assay results as given in patent US5350681A, “Enzymatic membrane method for the synthesis and separation of peptides” (The Coca-Cola Company, priority 1992, dated 1994).

Conditions: pH 5

SMILES: CC(C)OC(=O)[C@@H](N)Cc1ccccc1 [L-phe-O-<, L-phenylalanine isopropyl ester]
- chemical stability of L-phe-O-< over L-phe-OMe: seven times higher
- stability of the ester (hydrolysis to L-phenylalanine): stable
